Source: patent publication US7179819B2, “VLA-4 inhibitor compounds” (Daiichi Pharmaceutical Co., Ltd., priority 1999, dated 2007)

| melting point [°C] | Structure (SMILES) |
| --- | --- |
| 125 to 130 | COc1cc(CC(=O)N2C[C@H](OC)C[C@H]2COc2ccc(C(=O)O)cc2)ccc1NC(=O)Nc1ccccc1Br [Compound 138, 4-[1-[4-[N′-(2-bromophenyl)ureido]-3-methoxyphenylacetyl]-(4R)-methoxy-(2S)-pyrrolidinylmethoxy]benzoic acid] |
| 162 to 164 | CN[C@@H]1C[C@@H](COc2ccc(C(=O)O)cc2)N(C(=O)Cc2ccc(NC(=O)Nc3ccccc3C)c(OC)c2)C1 [Compound 153, 4-[trans-1-[3-methoxy-4-[N′-(2-methylphenyl)ureido]phenylacetyl]4-methylamino-(2S)-pyrrolidinyl]methoxybenzoic acid] |
| 135 to 142 | COc1cc(CC(=O)N2C[C@@H](NS(=O)(=O)c3ccc4ccccc4c3)C[C@H]2COc2ccc(C(=O)O)cc2)ccc1NC(=O)Nc1ccccc1Cl [Compound 161, 4-[cis-1-[4-[N′-(2-chlorophenyl)ureido]-3-methoxylphenylacetyl]-4-(2-naphthalenesulfonamido)-(2S)-pyrrolidinyl]methoxybenzoic acid] |
| 130 to 132 | COc1cc(CC(=O)N2C[C@@H](NS(=O)(=O)c3c(C)cc(C)cc3C)C[C@H]2COc2ccc(C(=O)O)cc2)ccc1NC(=O)Nc1ccccc1Br [Compound 162] |
| 125 to 128 | COc1cc(CC(=O)N2C[C@@H](NS(C)(=O)=O)C[C@H]2COc2ccc(C(=O)O)cc2)ccc1NC(=O)Nc1ccccc1Br [Compound 164, 4-[4-methanesulfonamido-1-[4-[N′-(2-bromophenyl)ureido]-3-methoxyphenylacetyl]-(2S)-pyrrolidinyl]methoxybenzoic acid] |
| 130 to 134 | COc1cc(CC(=O)N2C3CCCCC3C[C@H]2COc2ccc(C(=O)O)cc2)ccc1NC(=O)Nc1ccccc1C (stereo partly drawn) [Compound 165, 4-[1-[3-methoxy-4-[N′-(2-methylphenyl)ureido]phenylacetyl]-(2S)-octahydroindolylmethoxy]benzoic acid] |
| 118 to 123 | COc1cc(CC(=O)N2C3CCCCC3C[C@H]2COc2ccc(C(=O)O)cc2)ccc1NC(=O)Nc1ccccc1Br (stereo partly drawn) [Compound 167, 4-[1-[4-[N′-(2-bromophenyl)ureido]-3-methoxyphenylacetyl]-(2S)-octahydroindolylmethoxy]benzoic acid] |
| 110 to 113 | COc1cc(CC(=O)N2CCC[C@H]2COC2CCC(C(=O)O)CC2)ccc1NC(=O)Nc1ccccc1C (stereo partly drawn) [Compound 174, 4-[[1-[3-methoxy-4-[N′(2-methylphenyl)ureido]phenylacetyl]-(2S)-pyrrolidinyl]methoxy]cyclohexanecarboxylic acid] |
| 111 to 115 | COc1cc(CC(=O)N2CCC[C@H]2COC2CCC(C(=O)O)CC2)ccc1NC(=O)Nc1ccccc1Cl (stereo partly drawn) [Compound 175, 4-[[1-[4-[N′-(2-chlorophenyl)ureido]-3-methoxylphenylacetyl]-(2S)-pyrrolidinyl]methoxy]cyclohexanecarboxylic acid] |
| 108 to 111 | COc1cc(CC(=O)N2CCC[C@H]2COC2CCC(C(=O)O)CC2)ccc1NC(=O)Nc1ccccc1Br (stereo partly drawn) [Compound 176, 4-[1-[4-[N′-(2-bromophenyl)ureido]-3-methoxylphenylacetyl]-(2S)-pyrrolidinyl]methoxy cyclohexanecarboxilic acid] |
| 107 to 111 | Cc1ccccc1NC(=O)Nc1ccc(CC(=O)N2CCC[C@H]2COC2CCC(C(=O)O)CC2)cc1 (stereo partly drawn) [Compound 177, 4-[[1-[4-[N′-(2-methylphenyl)ureido]phenylacetyl]-(2S)-pyrrolidinyl]methoxy]cyclohexane carboxylic acid] |
| 120 to 121 | COc1cc(CC(=O)N2C3CCCCC3C[C@H]2COC2CCC(C(=O)O)CC2)ccc1NC(=O)Nc1ccccc1Cl (stereo partly drawn) [Compound 178, cis-4-[1-[4-[N′-(2-chlorophenyl)ureido]-3-methoxylphenylacetyl]-(2S)-octahydroindolylmethoxy]cyclohexanecarboxylic acid] |
| 131 to 135 | COc1cc(CC(=O)N2CC[C@H](Oc3ccc(C(=O)O)cc3)C2)ccc1NC(=O)Nc1ccccc1C [Compound 182, 4-[1-[3-methoxy-4-[N′-(2-methylphenyl)ureido]phenylacetyl]-(3S)-pyrrolidinyloxy]benzoic acid] |
| 190 to 193 | COc1cc(CC(=O)N2CC[C@H](Oc3ccc(C(=O)O)cc3)C2)ccc1NC(=O)Nc1ccccc1Cl [Compound 183, 4-[1-[4-[N′-(2-chlorophenyl)ureido]-3-methoxyphenylacetyl]-(3S)-pyrrolidinyloxy]benzoic acid] |
| 173 to 175 | COc1cc(CC(=O)N2CC[C@H](Oc3ccc(C(=O)O)cc3)C2)ccc1NC(=O)Nc1ccccc1Br [Compound 184, 4-[1-[4-[N′-(2-bromophenyl)ureido]-3-methoxyphenylacetyl]-(3S)-pyrrolidinyloxy]benzoic acid] |
| 158 to 162 | COc1cc(CC(=O)N2CC[C@@H](Oc3ccc(C(=O)O)cc3)C2)ccc1NC(=O)Nc1ccccc1C [Compound 185, 4-[1-[3-methoxy-4-[N′-(2-methylphenyl)ureido]phenylacetyl]-(3R)-pyrrolidinyloxy]benzoic acid] |
| 193 to 194 | COc1cc(CC(=O)N2CC[C@@H](Oc3ccc(C(=O)O)cc3)C2)ccc1NC(=O)Nc1ccccc1Cl [Compound 186, 4-[1-[4-[N′-(2-chlorophenyl)ureido]-3-methoxyphenylacetyl]-(3R)-pyrrolidinyloxy]benzoic acid] |
| 175 to 177 | COc1cc(CC(=O)N2CC[C@@H](Oc3ccc(C(=O)O)cc3)C2)ccc1NC(=O)Nc1ccccc1Br [Compound 187, 4-[1-[4-[N′-(2-bromophenyl)ureido]-3-methoxyphenylacetyl]-(3R)-pyrrolidinyloxy]benzoic acid] |

| melting point [°C] | Structure (SMILES) |
| --- | --- |
| 180 to 181 | COc1cc(CC(=O)NCCOc2ccc(C(=O)O)cc2OC)ccc1NC(=O)Nc1ccccc1C [Compound 255, 3-methoxy-4-[2-[3-methoxy-4-[N′-(2-methylphenyl)ureido]phenylacetyl]aminoethoxy]benzoic acid] |
| 112 to 115 | COc1cc(CC(=O)NCCOc2ccc(C(=O)O)cc2[N+](=O)[O-])ccc1NC(=O)Nc1ccccc1C [Compound 257, 3-nitro-4-[2-[3-methoxy-4-[N′-(2-methylphenyl)ureido]phenylacetyl]aminoethoxy]benzoic acid] |
| 240 to 245 | COc1cc(CC(=O)N2CCN(c3ccc(C(=O)O)cc3)CC2)ccc1NC(=O)Nc1ccccc1C [Compound 259] |
| 168 to 169 | COc1cc(CC(=O)N[C@H](C)COc2ccc(C(=O)O)cc2OC)ccc1NC(=O)Nc1ccccc1C [Compound 260, (R)-3-methoxy-4-[2-[3-methoxy-4-[N′-(2-methylphenyl)ureido]phenylacetylamino]-1-propoxy]benzoic acid] |
| 155 to 160 | COc1cc(CC(=O)N(CCOc2ccc(C(=O)O)cc2OC)CCN2CCN(C)CC2)ccc1NC(=O)Nc1ccccc1C [Compound 263] |
| 198 to 201 | COc1cc(CC(=O)N[C@@H](C)COc2ccc(C(=O)O)cc2)ccc1NC(=O)Nc1ccccc1C [Compound 272, (S)-4-[2-[3-methoxy-4-[N′-(2-methylphenyl)ureido]phenylacetylamino]-1-propoxy]benzoic acid] |
| 262 to 265 | Cc1ccccc1NC(=O)Nc1ccc(CC(=O)N[C@@H](C)COc2ccc(C(=O)O)cc2)cc1 [Compound 273, (S)-4-[2-[4-[N′-(2-methylphenyl)ureido]phenylacetylamino]-1-propoxy]benzoic acid] |
| 228 to 231 | Cc1ccccc1NC(=O)Nc1ccc(CC(=O)N[C@@H](C)COc2ccc(C(=O)O)cc2Cl)cc1 [Compound 274, (S)-3-chloro-4-[2-[4-[N′-(2-methylphenyl)ureido]phenylacetylamino]-1-propoxy]benzoic acid] |
| 198 to 201 | COc1cc(CC(=O)N[C@@H](C)COc2ccc(C(=O)O)cc2Cl)ccc1NC(=O)Nc1ccccc1C [Compound 275, (S)-3-chloro-4-[2-[3-methoxy-4-[N′-(2-methylphenyl)ureido]phenylacetylamino]-1-propoxy]benzoic acid] |
| 125 to 130 | COc1cc(CC(=O)N(C)CCOc2ccc(C(=O)O)cc2N(C)C)ccc1NC(=O)Nc1ccccc1C [Compound 276, 3-dimethylamino-4-[[2-[3-methoxy-4-[N′-(2-methylphenyl)ureido]phenylacetyl]methylamino]ethoxy]benzoic acid] |
| 120 to 125 | COc1cc(CC(=O)N(C)CCOc2ccc(C(=O)O)cc2N(C)C)ccc1NC(=O)Nc1ccccc1F [Compound 277, 3-dimethylamino-4-[[2-[3-methoxy-4-[N′-(2-fluorophenyl)ureido]phenylacetyl]methylamino]ethoxy]benzoic acid] |
| 110 to 115 | Cc1ccccc1NC(=O)Nc1ccc(CC(=O)N(C)CCOc2ccc(C(=O)O)cc2N(C)C)cc1 [Compound 278] |
| 195 to 200 | COc1cc(CC(=O)N(C)CCOc2ccc(C(=O)O)cc2NC(C)C)ccc1NC(=O)Nc1ccccc1F [Compound 279, 3-isopropylamino-4-[[2-[3-methoxy-4-[N′-(2-fluorophenyl)ureido]phenylacetyl]methylamino]ethoxy]benzoic acid] |
| 188 to 191 | COc1cc(CC(=O)N[C@@H](C)COc2ccc(C(=O)O)cc2Cl)ccc1NC(=O)Nc1ccccc1F [Compound 281, (S)-3-chloro-4-[2-[3-methoxy-4-[N′-(2-fluorophenyl)ureido]phenylacetylamino]-1-propoxy]benzoic acid] |
| 115 to 120 | COc1cc(CC(=O)N(C)CCNc2ccc(C(=O)O)cc2)ccc1NC(=O)Nc1ccccc1C [Compound 282, 4-[[2-[3-methoxy-4-[N′-(2-methylphenyl)ureido]phenylacetyl]methylamino]ethylamino]benzoic acid] |
| 142 to 147 | COc1cc(CC(=O)N(C)[C@@H](C)COc2ccc(C(=O)O)cc2Cl)ccc1NC(=O)Nc1ccccc1F [Compound 283, (S)-3-chloro-4-[2-[N-methyl-N-[3-methoxy-4-[N′-(2-fluorophenyl)ureido]phenylacetyl]amino]-1-propoxy]benzoic acid] |
| 125 to 130 | COc1cc(CC(=O)N(C)[C@@H](C)COc2ccc(C(=O)O)cc2Cl)ccc1NC(=O)Nc1ccccc1C [Compound 284] |
